This is an account of results in publication PMC9878342, “Gossypol acetate: A natural polyphenol derivative with antimicrobial activities against the essential cell division protein FtsZ” (Frontiers in Microbiology, 2023).

This test deals with T1, FtsZ (SaFtsZ) (Staphylococcus aureus, UniProt P0A031).
T1 construct: 6× His-FtsZ (N-terminal 6× His tag)
T1 sequence (P0A031 1-390): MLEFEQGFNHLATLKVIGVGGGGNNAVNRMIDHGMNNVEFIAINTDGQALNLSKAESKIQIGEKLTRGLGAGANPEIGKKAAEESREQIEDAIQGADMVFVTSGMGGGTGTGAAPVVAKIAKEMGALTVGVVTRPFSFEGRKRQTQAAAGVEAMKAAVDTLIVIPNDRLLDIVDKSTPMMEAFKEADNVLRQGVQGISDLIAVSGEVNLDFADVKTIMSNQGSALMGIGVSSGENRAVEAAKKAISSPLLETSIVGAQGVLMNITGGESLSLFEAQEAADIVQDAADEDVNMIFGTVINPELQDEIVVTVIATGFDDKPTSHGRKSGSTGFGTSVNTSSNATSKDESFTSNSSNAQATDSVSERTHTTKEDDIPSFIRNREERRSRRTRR
Description: isothermal titration calorimetry; also GTPase inhibition and […]° light scattering. It is filed as binding.

In turn, `Cc1cc2c(C(C)C)c(O)c(O)c(C=O)c2c(O)c1-c1c(C)cc2c(C(C)C)c(O)c(O)c(C=O)c2c1O` [S2303, Gossypol acetate] registered a Kd of 3.6 ± 0.7 µM.

The Kd is the equilibrium constant for the complex coming apart.
